Experimental data as given in article PMC5563081, “Modulating Protein-Protein Interactions of the Mitotic Polo-like Kinases to Target Mutant KRAS” (Cell Chemical Biology, 2017).
Read-outs that look alike come from different tables or passages of the source.

Assays:
[1] = molecular target: T1, PLK1 (Homo sapiens, UniProt P53350); assay: Cellular thermal shift assay (CeTSA / ITDRF-CeTSA) in HeLa cell lysates; assay type: binding
T1 construct: endogenous in cells; host or cells: HeLa cell lysate
Experimental: Two million HeLa cells were assessed for viability using Trypan blue and aliquoted into PCR tubes for lysate preparation and CeTSA. Aggregation temperature (Tagg) was determined for PLK1 PBD with a Biorad Tetrad gradient maker, using a final concentration of 1mM or 0.5mM for Poloppin or Poloppin-II, respectively, in 5% DMSO ([Jafari et al., 2014]). Samples were assessed using PLK1 antibodies (Invitrogen 33-1700) and GAPDH (Santa Cruz sc137179) and Li-Cor antibody (926-32252). Quantification was done with Odyssey Li-Cor technology.

[2] = system: HPAF II; assay: Cell viability (SRB), HPAF II; assay type: cell-based; conditions: Homo sapiens, 72 h
Experimental: SW48 Parental, SW48 G12D, Panc-1, HPAF-II, Panc 02.03 and Panc 05.04 cell lines were seeded overnight at 5000 cells per well in a 96 well plate in recommended media (ATCC). Compounds were added the following day and viability was measured at 72h using the sulforhodamine B (SRB) colorimetric assay as follows. Cells were fixed by replacing media with 1% v/v Trichloroacetic Acid (TCA) (Sigma-Aldrich) at 4°C and incubated for 1h also at 4°C. Wells were washed thoroughly with copious amounts of deionised water before staining with Sulforhodamine B (SRB) (Sigma-Aldrich) solution (0.057% w/v in 1% v/v Acetic Acid (VWR)) for 30 min. […] Fluorescence intensity was recorded at Ex540nm / Em590nm using a BMG Pherastar Plus plate reader ([Vichai and Kirtikara, 2006]).
Pancreatic organoids were extracted and cultured as detailed above ([Boj et al., 2015]). […] Full-grown organoids were then treated with compounds for 72h and viability determined using CellTitre Glo 3D assay (Promega). […] The 96 well plates were treated with a dose range of compounds or DMSO, and viability was determined via SRB colorimetric assay. […]
Cells were reverse-transfected with 50nM (SW48 parental, SW48 KRAS G12D and Panc-1) or 25nM (HeLa Flp-In T-REx parental cells) siRNA using Dharmafect (GE Dharmacon) as manufacturer’s recommendations. […] Viability was assessed after 72 hrs, with the SRB colorimetric assay. […]

[3] = system: parental HeLa cells; assay: Live-cell imaging of cell fate, parental HeLa; assay type: cell-based, human; conditions: wild-type HeLa
Experimental: Five x10^4 cells were seeded on each well of 4-well coverglass Lab-Tek chambers in a volume of 800 μl. HeLa-G12D cells were induced with Doxycycline (Dox) 24h before seeding and kept in Dox for the rest of the experiment.
For live cell imaging analysis image sequences were viewed using ImageJ software and cell fate was analysed manually. Time spent in mitosis for different groups was compared with a Kruskal-Wallis test and Dunn's multiple comparison correction.

T1 sequence (P53350 whole entry): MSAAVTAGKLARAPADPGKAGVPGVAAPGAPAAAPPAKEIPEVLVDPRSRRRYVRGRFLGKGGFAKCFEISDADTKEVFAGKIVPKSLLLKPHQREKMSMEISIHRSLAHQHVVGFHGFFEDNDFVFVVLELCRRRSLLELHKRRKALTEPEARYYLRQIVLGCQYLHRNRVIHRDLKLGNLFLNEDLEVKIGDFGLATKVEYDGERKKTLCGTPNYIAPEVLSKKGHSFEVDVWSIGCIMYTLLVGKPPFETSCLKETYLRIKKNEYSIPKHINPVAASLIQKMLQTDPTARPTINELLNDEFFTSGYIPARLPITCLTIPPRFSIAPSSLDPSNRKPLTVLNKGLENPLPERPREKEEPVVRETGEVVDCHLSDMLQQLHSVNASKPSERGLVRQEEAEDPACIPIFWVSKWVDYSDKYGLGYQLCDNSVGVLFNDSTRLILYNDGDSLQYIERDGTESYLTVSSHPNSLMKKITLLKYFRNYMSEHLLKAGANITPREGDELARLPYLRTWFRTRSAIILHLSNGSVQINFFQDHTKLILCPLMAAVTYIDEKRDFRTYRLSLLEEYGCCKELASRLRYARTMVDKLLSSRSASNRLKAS

O=C(O)CCc1ccc(-c2ccc(Br)cc2)n1-c1ccccc1C(F)(F)F [Poloppin]
concentration at which cellular PLK1 is stabilized (ITDRF-CeTSA) ([1]; cell lysates at a constant 67°C): > 40 µM | thermal stability of PLK1 protein (CeTSA) ([1]; fixed dose of 1 mM, HeLa cell lysates, compared with control): increased thermal stability | EC50 ([2]; read-out: EC50, % survival, HPAF II, All Stars control siRNA, 72 h): 12.4 ± 1.08 µM | EC50 ([2]; read-out: EC50, % survival, HPAF II, siMET, 72 h): 5.6 ± 1.05 µM | average time in mitosis ([3]; Poloppin at GI50 dose (10μM), 60 min without): 100 min | frequency of aneuploid divisions ([3]; Poloppin at GI50 dose, 4% after DMSO): 38%
